Experimental data published in US9012493B2, “1-heterodiene derivative and pest control agent” (Nippon Soda Co., Ltd., priority 2009, dated 2015).

Legend:
Format in all cases: in vivo
[1] = system: Sweetpotato Whitefly (Bemisia Tabaci); assay: Efficacy test against sweetpotato whitefly, sprayed tomato leaf; conditions: 125 ppm, emulsifiable concentrate diluted with water, adults (type B), after 2 days, 25° C.
In short: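 Cut tomato leaves were sprayed with an emulsifiable concentrate diluted to 125 ppm compound, air-dried, then infested with seven pairs of type B adults. Leaves were held at 25 °C and 65% humidity, and mortality was counted after 2 days as dead/released × 100. The test was run twice.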

[2] = system: Rice Armyworm (Mythimna Separata); assay: Efficacy test against rice armyworm, corn leaf dip; conditions: 125 ppm, emulsifiable concentrate diluted with water, corn leaves immersed, second instar larvae, after 5 days, 25° C.
In short: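 Corn leaves dipped 30 s in compound diluted to 125 ppm from an emulsifiable concentrate, air-dried, then offered to five second-instar larvae. Held at 25° C and 65% humidity; mortality scored after 5 days as dead/released ×100. Run in duplicate.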

[3] = system: Cotton Aphid (Aphis Gossypii); assay: Efficacy test against cotton aphid, spray on cucumber plant; conditions: 125 ppm, emulsifiable concentrate diluted with water, sprayed over cucumber plant with nymphs, after 5 days, 25° C.
In short: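 Cucumber plants (~10 days after sprouting) carrying nymphs deposited by cotton aphid adults over 1 day were sprayed with emulsifiable concentrate diluted to 125 ppm compound. Plants were kept at 25 °C and 65% humidity. Mortality after 5 days gave the insecticidal rate (dead/released ×100), from two replicates.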

[4] = system: Twospotted Spider Mite (Tetranychus Urticae Koch); assay: Efficacy test against twospotted spider mite, spray on kidney bean plant; conditions: 125 ppm, wettable powder diluted with water, sprayed, female adults with resistance to an organophosphorus agent on kidney bean, after 3 days
Method: The wettable powder obtained according to Formulation of Formulation Example 1 was diluted with water so as to control the concentration of the compound to 125 ppm. Seventeen female adults of twospotted spider mite with resistance to an organophosphorus agent were inoculated on a first true leaf of a kidney bean plant (approximately 7 to 10 days after sprouting) sown in a 3 sun/size pot (9 cm). The diluted solution was sprayed. The pot was placed in a temperature-controlled room at a temperature of 25° C. and a humidity of 65%. After 3 days, the adulticidal rate was examined. The test was repeated twice.

C=C1SC(=Nc2ccc(OC)cc2)C(=CSc2ccc(Br)s2)CC1(C)C [Compound 2-117]
100%: insecticidal rate [1] | insecticidal rate [2] | insecticidal rate [3] | adulticidal rate [4]

C=C1SC(=Nc2ccc(C)cc2C)C(=CSc2ccccc2)CC1(C)C [Compound 2-64]
100%: insecticidal rate [1] | insecticidal rate [2] | insecticidal rate [3] | adulticidal rate [4]

C=C1SC(=Nc2ccc(OC)cc2)C(=CSc2ccccc2OC)CC1(C)C [Compound 2-49]
100%: insecticidal rate [1] | insecticidal rate [2] | insecticidal rate [3] | adulticidal rate [4]

C=C1CCC(=CSc2ccc(F)cc2)C(=Nc2ccc(C)cc2)S1 [Compound 2-6]
100%: insecticidal rate [1] | insecticidal rate [2] | insecticidal rate [3] | adulticidal rate [4]

C=C1SC(=N\c2ccc(C)cc2)/C(=C/Sc2ccccc2)CC1(C)C [Compound 2-11, {5,5-dimethyl-6-methylene-3-[1-phenylsulfanyl-(E)-methylidene]-tetrahydro-thiopyran-(2Z)-ylidene}-p-tolyl-amine]
100%: insecticidal rate [1] | insecticidal rate [2] | insecticidal rate [3] | adulticidal rate [4]

C=C1SC(=Nc2ccc(OC)cc2C)C(=CSc2ccc(F)cc2)CC1(C)C [Compound 2-41]
100%: insecticidal rate [1] | insecticidal rate [2] | insecticidal rate [3] | adulticidal rate [4]

C=C1SC(=Nc2ccc(Cl)c(Cl)c2)C(=CSc2ccccc2)CC1(C)C [Compound 2-35]
100%: insecticidal rate [1] | insecticidal rate [2] | insecticidal rate [3] | adulticidal rate [4]

C=C1SC(=Nc2ccc(C)c(C)c2)C(=CSc2ccccc2)CC1(C)C [Compound 2-148]
100%: insecticidal rate [1] | insecticidal rate [2] | insecticidal rate [3] | adulticidal rate [4]

C=C1SC(=Nc2ccc(OC)cc2)C(=CSc2ccc(C#N)cc2)CC1(C)C [Compound 2-70]
100%: insecticidal rate [1] | insecticidal rate [2] | insecticidal rate [3] | adulticidal rate [4]

C=C1SC(=Nc2ccc(C)cc2)C(=CSc2ccccc2)CC1c1ccccc1 (racemic) [Compound 2-15]
100%: insecticidal rate [1] | insecticidal rate [2] | insecticidal rate [3] | adulticidal rate [4]

C=C1SC(=Nc2ccc(C)cc2)C(=CSc2ccc(Cl)cc2)CC1(C)C (mixture of isomers) [Compound 2-87]
100%: insecticidal rate [1] | insecticidal rate [2] | insecticidal rate [3] | adulticidal rate [4]

C=C1SC(=Nc2ccc(OC)cc2)C(=CSc2ccc(C)s2)CC1(C)C [Compound 2-83]
100%: insecticidal rate [1] | insecticidal rate [2] | insecticidal rate [3] | adulticidal rate [4]

C=C1SC(=Nc2ccc(OC)cc2)C(=CSc2ccc([Si](C)(C)C)s2)CC1(C)C [Compound 2-103]
100%: insecticidal rate [1] | insecticidal rate [2] | insecticidal rate [3] | adulticidal rate [4]

C=C1SC(=Nc2ccc(C)cc2)C(=CSc2cccs2)CC1C (stereo not drawn) [Compound 2-77]
100%: insecticidal rate [1] | insecticidal rate [2] | insecticidal rate [3] | adulticidal rate [4]

C=C1SC(=Nc2ccc(C)cc2)C(=CSc2cccc(C)c2)CC1(C)C [Compound 2-110]
100%: insecticidal rate [1] | insecticidal rate [2] | insecticidal rate [3] | adulticidal rate [4]

C=C1SC(=Nc2ccc(C)cc2)C(=CSc2ccsc2)CC1(C)C [Compound 2-78]
100%: insecticidal rate [1] | insecticidal rate [2] | insecticidal rate [3] | adulticidal rate [4]

C=C1SC(=Nc2ccc(Cl)cc2)C(=CSc2ccccc2)CC1(C)C [Compound 2-12]
100%: insecticidal rate [1] | insecticidal rate [2] | insecticidal rate [3] | adulticidal rate [4]

C=C1SC(=Nc2ccc(C)cc2)C(=CSc2ccc(C)s2)CC1(C)C [Compound 2-79]
100%: insecticidal rate [1] | insecticidal rate [2] | insecticidal rate [3] | adulticidal rate [4]

C=C1SC(=Nc2ccc(C)cc2)C(=CSc2ccccc2)CC1C (stereo not drawn) [Compound 2-76]
100%: insecticidal rate [1] | insecticidal rate [2] | insecticidal rate [3] | adulticidal rate [4]

C=C1SC(=Nc2ccc(OC)cc2)C(=CSc2ccsc2)CC1(C)C [Compound 2-81]
100%: insecticidal rate [1] | insecticidal rate [2] | insecticidal rate [3] | adulticidal rate [4]

CC(C)=C1CCC(=C\Sc2ccccc2)/C(=N/c2ccc(Cl)cc2)S1 [Compound 2-2, (4-chloro-phenyl)-{6-isopropylidene-3-[1-phenylsulfanyl-(E)-methylidene]-tetrahydro-thiopyran-(2Z)-ylidene}-amine]
100%: insecticidal rate [1] | insecticidal rate [2] | insecticidal rate [3] | adulticidal rate [4]

C=C1SC(=Nc2ccc(Cl)cc2)C(=CSc2ccc(F)cc2)CC1(C)C [Compound 2-13]
100%: insecticidal rate [1] | insecticidal rate [2] | insecticidal rate [3] | adulticidal rate [4]

C=C1SC(=Nc2ccc(C)cc2)C(=CSc2ccc(C(F)(F)F)cc2)CC1(C)C [Compound 2-90]
100%: insecticidal rate [1] | insecticidal rate [2] | insecticidal rate [3] | adulticidal rate [4]

C=C1SC(=Nc2ccc(C)c(C)c2)C(=CSc2cccs2)CC1(C)C [Compound 2-149]
100%: insecticidal rate [1] | insecticidal rate [2] | insecticidal rate [3] | adulticidal rate [4]

C=C1SC(=Nc2ccc(C)c(C)c2)C(=CSc2ccc(F)cc2)CC1(C)C [Compound 2-150]
100%: insecticidal rate [1] | insecticidal rate [2] | insecticidal rate [3] | adulticidal rate [4]

C=C1SC(=Nc2ccc(C)cc2)C(=CSc2ccccc2)CC12CCCCC2 [Compound 2-17]
100%: insecticidal rate [1] | insecticidal rate [2] | insecticidal rate [3] | adulticidal rate [4]

C=C1SC(=Nc2ccc(C)cc2)C(=CSc2cccc(F)c2)CC1(C)C (mixture of isomers) [Compound 2-84]
100%: insecticidal rate [1] | insecticidal rate [2] | insecticidal rate [3] | adulticidal rate [4]

C=C1SC(=Nc2ccc(OC)cc2C)C(=CSc2ccccc2)CC1(C)C [Compound 2-40]
100%: insecticidal rate [1] | insecticidal rate [2] | insecticidal rate [3] | adulticidal rate [4]

C=C1SC(=Nc2ccc(C)cc2)C(=CSc2cccc3ccccc23)CC1(C)C (mixture of isomers) [Compound 2-89]
100%: insecticidal rate [1] | insecticidal rate [2] | insecticidal rate [3] | adulticidal rate [4]

C=C1SC(=Nc2ccc(C)cc2)C(=CSc2cccc(C(F)(F)F)c2)CC1(C)C [Compound 2-99]
100%: insecticidal rate [1] | insecticidal rate [2] | insecticidal rate [3] | adulticidal rate [4]
